Assays:
mice = experiment: formalin paw test; type: in vivo, mouse
Method: AAK1 homozygous (−/−) and their wild-type (+/+) littermates were tested using the formalin paw test in order to assess their acute and tonic nociceptive responses. For these tests, Automatic Nociception Analyzers (purchased from the Ozaki lab at University of California, San Diego) were used. A metal band was placed around the left hind paw of each mouse 30 minutes prior to testing. After the 30-minute acclimation period, 20 μl of 5% formalin is subcutaneously injected in the dorsal surface of the left hind paw. Mice were individually housed in cylindrical chambers for 45 minutes. Fresh 5% formalin solution was prepared by diluting formaldehyde (Formalde-fresh 20%, Fisher Scientific, Fair Lawn, N.J.) with distilled water. Investigatory compounds were administered 30 minutes prior to formalin injection.
A computer recorded flinches per minute, total flinches for phase I (acute phase=first 8 minutes), and total flinches for phase II (tonic phase=time between minutes 20-40) through an electromagnetic field. See Yaksh T L, Ozaki G, McCumber D, Rathbun M, Svensson C, Malkmus S, Yaksh M C. An automated flinch detecting system for use in the formalin nociceptive bioassay. J Appl Physiol., 2001; 90:2386-402.
The same test was used to confirm that the administration of an AAK1 inhibitor can also affect pain response.
A compound of the disclosure was tested in this assay at different doses. Gabapentin and pregabalin were used as positive controls. Results are shown below in Table 2, wherein the effect of gabapentin at 200 mg/kg is considered a 100% response, the % response for the other compounds is relative to the 200 mg/kg dose of gabapentin, “sc” means subcutaneous administration; “po” means oral administration.

[1] = biological target: T1, AAK1 (full length human) in HEK293F cells (Homo sapiens, UniProt Q2M2I8); experiment: HEK281 cell-based assay (phospho-mu2 Western blot in transfected HEK293F cells); conditions: 3 hours, phospho-mu2, given as IC50 range
T1 construct: fused on or other part: HA tag (AAK1/HA in pIRES vector)
T1 sequence (Q2M2I8 1-822 limits assumed): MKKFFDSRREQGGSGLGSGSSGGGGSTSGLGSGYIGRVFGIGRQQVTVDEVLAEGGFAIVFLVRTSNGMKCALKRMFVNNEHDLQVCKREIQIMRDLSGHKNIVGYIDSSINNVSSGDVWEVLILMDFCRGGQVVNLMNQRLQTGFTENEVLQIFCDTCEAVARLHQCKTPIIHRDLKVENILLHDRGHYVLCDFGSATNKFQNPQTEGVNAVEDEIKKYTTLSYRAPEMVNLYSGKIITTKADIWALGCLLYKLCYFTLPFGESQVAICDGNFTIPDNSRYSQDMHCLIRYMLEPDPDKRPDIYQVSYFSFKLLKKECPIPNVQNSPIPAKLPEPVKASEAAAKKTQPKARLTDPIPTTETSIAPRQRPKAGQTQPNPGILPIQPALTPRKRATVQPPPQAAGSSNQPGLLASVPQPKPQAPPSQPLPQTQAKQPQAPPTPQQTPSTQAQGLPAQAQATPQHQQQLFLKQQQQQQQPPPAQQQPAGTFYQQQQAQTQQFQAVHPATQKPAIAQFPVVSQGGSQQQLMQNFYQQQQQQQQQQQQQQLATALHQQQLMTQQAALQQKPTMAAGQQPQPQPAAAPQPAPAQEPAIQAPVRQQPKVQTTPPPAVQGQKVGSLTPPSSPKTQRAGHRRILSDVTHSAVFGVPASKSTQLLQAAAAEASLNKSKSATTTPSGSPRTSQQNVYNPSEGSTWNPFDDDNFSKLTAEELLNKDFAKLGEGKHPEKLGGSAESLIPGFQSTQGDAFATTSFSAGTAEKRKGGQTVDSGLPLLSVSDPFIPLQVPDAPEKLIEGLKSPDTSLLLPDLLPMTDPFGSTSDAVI
Method: On day one, cells were plated on a 10 cm dish so that they are ˜80% confluent at time oftransfection. Roughly 12 million cells were in a 10 cm dish at time of transfection. […] The DNA was comprised of a mixture (per 10 cm dish) containing 3 ug AAK1/HA/pIRES (full length human, NCBI accession no. NP_055726.2), 45 μg Flag/AP2MI/pcDNA (full length human), and 1.5 ml OPTI-MEM. The Lipofectamine 2000 is made up of a mixture (per 10 cm dish) containing 144 μl Lipofectamine 2000 and 1.5 ml OPTI-MEM. Each mixture was transferred to individual 15 ml tubes and incubated at RT for 5 minutes, and then the two mixes were combined and incubated at RT for 20 minutes. Growth media was then aspirated from each 10 cm plate and replaced with 10 ml of DMEM+10% FBS (no GPS). Finally, 3 ml DNA/Lipofectamine mix was added to each 10 cm dish and mix gently followed by incubate of plate overnight at 37° C. and 5% CO2.
On day three, compounds were diluted in 100% DMSO at 1000× final concentration, followed by 3-fold serial dilutions for a total of 5 concentrations tested. Four compounds were tested per 10 cm dish. One ul of each compound dilution was then pipetted into a deep-well, 96-well plate, followed by addition of 500 μl DMEM+0.5% FBS into each well for a 2× final concentration of each compound. Cells were resuspended in a 10 cm dish by simple pipetting (HEK293 cells come off the plate that easy at this point) and then transferred to a 50 ml conical tube and pelleted by centrifugation at 1000 rpm for 5 min. Cell pellets were then resuspended in 2.75 ml DMEM+0.5% FBS per 10 cm dish and 100 μl of cell suspension transferred into each well of 96-well TC plate. Finally, 100 μl of 2× compound diluted in DMEM+0.5% FBS was then added into wells containing cell suspension for a 1× final concentration. Plates were then incubated at 37° C. and 5% CO2 for 3 hours followed by transferring of cell suspensions from each well into 12-tube PCR strips. The PCR strips were spun in a tip rack at 1000 rpm for 5 minutes to pellet cells and media was then removed by pipetting without disturbing the cell pellet.
Five ul of 10× NuPage Sample Reducing Agent (with 50 mM DTT) was to each sample followed by heat denaturing at 70 C for 10 min on PCR machine. […] For controls, 2 ng of phospho-mu2 or 20 ng mu2/Flag proteins were loaded in the last well of each gel. After SDS-PAGE, samples on each gel were transferred to PVDF membrane using an iBlot and membranes were blocked for one hour in TBST+5% milk, followed by wash 3× for 5-10 min with TBST.
Finally, the camera was set up to take a picture every 30 seconds for 10 minutes and the best image saved for each blot with no saturated signal (when the signal is saturated, the bands will be highlighted red). A volume analysis on each band was performed to obtain density values. Percent inhibition was calculated for each sample by first normalizing to total Mu2 expression levels and then comparing to 0% and 100% controls. IC50 values were then calculated using Excel fitting software.

GST-Xa-hAAK1 = biological target: T2, GST-Xa-hAAK1 (Homo sapiens, UniProt Q2M2I8); experiment: AAK1 kinase assay; type: biochemical; conditions: ATP 22 μM; given as IC50 range
T2 construct: made in house
T2 sequence (Q2M2I8 whole entry): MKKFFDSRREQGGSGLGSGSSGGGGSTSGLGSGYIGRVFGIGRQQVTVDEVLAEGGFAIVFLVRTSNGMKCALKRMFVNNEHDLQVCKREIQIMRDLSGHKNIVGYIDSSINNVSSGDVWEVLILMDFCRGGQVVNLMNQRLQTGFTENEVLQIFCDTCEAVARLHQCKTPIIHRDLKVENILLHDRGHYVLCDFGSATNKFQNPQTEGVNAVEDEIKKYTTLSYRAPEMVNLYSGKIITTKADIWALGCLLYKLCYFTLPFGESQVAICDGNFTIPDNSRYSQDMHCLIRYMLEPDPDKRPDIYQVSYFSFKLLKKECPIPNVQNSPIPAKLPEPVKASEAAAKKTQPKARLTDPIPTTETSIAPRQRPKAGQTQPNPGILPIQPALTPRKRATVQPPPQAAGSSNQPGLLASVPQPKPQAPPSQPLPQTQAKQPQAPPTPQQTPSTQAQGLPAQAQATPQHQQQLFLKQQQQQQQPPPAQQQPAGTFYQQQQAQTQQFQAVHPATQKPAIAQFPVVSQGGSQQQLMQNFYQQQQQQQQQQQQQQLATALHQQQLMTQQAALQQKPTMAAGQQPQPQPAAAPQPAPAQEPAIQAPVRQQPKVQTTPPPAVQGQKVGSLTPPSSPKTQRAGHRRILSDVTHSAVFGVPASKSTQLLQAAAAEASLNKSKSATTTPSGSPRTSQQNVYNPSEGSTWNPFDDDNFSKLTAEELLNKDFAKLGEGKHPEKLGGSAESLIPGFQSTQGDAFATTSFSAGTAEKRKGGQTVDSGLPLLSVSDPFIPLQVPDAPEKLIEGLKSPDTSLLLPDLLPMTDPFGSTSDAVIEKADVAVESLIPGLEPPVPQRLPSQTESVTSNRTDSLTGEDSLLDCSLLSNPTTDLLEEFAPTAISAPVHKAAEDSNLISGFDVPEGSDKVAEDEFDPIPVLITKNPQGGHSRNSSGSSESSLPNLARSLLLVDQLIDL
Method: The assays were performed in U-bottom 384-well plates. […] The reactions were initiated by the combination of bacterially expressed, GST-Xa-hAAK1 with substrates and test compounds. The reactions were incubated at room temperature for 3 hours and terminated by adding 60 μl of 35 mM EDTA buffer to each sample. The reactions were analyzed on the Caliper LabChip 3000 (Caliper, Hopkinton, Mass.) by electrophoretic separation of the fluorescent substrate and phosphorylated product. […] Compounds were dissolved at 10 mM in dimethylsulfoxide (DMSO) and evaluated at eleven concentrations. IC50 values were derived by non-linear regression analysis.

[2] = 50 mg/kg sc, relative to gabapentin 200 mg/kg = 100% response

Structure (SMILES): CC(C)C[C@H](CN)CC(=O)O [Pregabalin, pregabalin]
- Response (mice; [2]): 90%

Structure (SMILES): CNC(=O)Nc1nccc2c1c(=O)n(C)c1cc(OC[C@@H](N)CC(C)C)c(F)cc21 [Example 145, (S)-1-(8-((2-amino-4-methylpentyl)oxy)-9-fluoro-6-methyl-5-oxo-5,6-dihydrobenzo[c][2,7]naphthyridin-4-yl)-3-methylurea]
- IC50 [1]: 10 to 100 nM
- IC50 (GST-Xa-hAAK1): 10 to 100 nM

Structure (SMILES): Cc1nccc2c1c(=O)n(C)c1cc(OC[C@@H](N)CC(C)C)c(C(C)C)cc21 [Example 129, (S)-8-((2-amino-4-methylpentyl)oxy)-9-isopropyl-4,6-dimethylbenzo[c][2,7]naphthyridin-5(6H)-one]
- IC50 [1]: 1 to 10 nM
- IC50 (GST-Xa-hAAK1): 1 to 10 nM

Structure (SMILES): Cn1c(=O)c2cnccc2c2cc(Br)c(OCC(N)CC(F)(F)F)cc21 (stereo not drawn) [Example 140, 8-(2-amino-4,4,4-trifluorobutoxy)-9-bromo-6-methylbenzo[c][2,7]naphthyridin-5(6H)-one]
- IC50 [1]: 10 to 100 nM
- IC50 (GST-Xa-hAAK1): 1 to 10 nM

Structure (SMILES): CC(C)C[C@H](N)COc1cc2c(cc1F)c1ccncc1c(=O)n2C [Example 14, (S)-8-((2-amino-4-methylpentyl)oxy)-9-fluoro-6-methylbenzo[c][2,7]naphthyridin-5(6H)-one]
- Response (mice; 30 mg/kg po, relative to gabapentin 200 mg/kg = 100% response): 62%

Structure (SMILES): NCC1(CC(=O)O)CCCCC1 [Gabapentin]
- Response (mice; [2]): 60%
- Response (mice; 200 mg/kg sc, considered a 100% response): 100%

Structure (SMILES): CC(C)NCC(O)COc1cc2c(cc1Br)c1ccncc1c(=O)n2C (stereo not drawn) [Example 148, 9-bromo-8-(2-hydroxy-3-(isopropylamino)propoxy)-6-methylbenzo[c][2,7]naphthyridin-5(6H)-one]
- IC50 [1]: 100 to 2000 nM
- IC50 (GST-Xa-hAAK1): 100 to 2000 nM

Structure (SMILES): Cn1c(=O)c2cnccc2c2cc(Cl)c(OCC(N)CCC(F)(F)F)cc21 (stereo not drawn) [Example 115, 8-((2-amino-5,5,5-trifluoropentyl)oxy)-9-chloro-6-methylbenzo[c][2,7]naphthyridin-5(6H)-one]
- IC50 [1]: 1 to 10 nM
- IC50 (GST-Xa-hAAK1): 1 to 10 nM

Structure (SMILES): Cn1c(=O)c2cnccc2c2cc(Cl)c(OCC(N)CC(F)(F)F)cc21 (stereo not drawn) [Example 141, 8-(2-amino-4,4,4-trifluorobutoxy)-9-chloro-6-methylbenzo[c][2,7]naphthyridin-5(6H)-one]
- IC50 [1]: 10 to 100 nM
- IC50 (GST-Xa-hAAK1): 1 to 10 nM

Structure (SMILES): Cc1nccc2c1c(=O)n(C)c1cc(OCC(N)CC(F)(F)F)c(Br)cc21 (single isomer, unassigned) [Example 139, 8-(2-amino-4,4,4-trifluorobutoxy)-9-bromo-4,6-dimethylbenzo[c][2,7]naphthyridin-5(6H)-one]
- IC50 [1]: 1 to 10 nM
- IC50 (GST-Xa-hAAK1): < 1 nM

— US20160333006A1, “ARYL LACTA KINASE INHIBITORS” (Bristol-Myers Squibb Company, priority 2014, published 2016)
